Like-named read-outs stand apart in the source and are kept apart here.
Columns and labels:
[1] = molecular target: His-tagged KRAS G12D protein (Homo sapiens, UniProt P01116, G12D); assay: KRAS G12D TR-FRET Assay; assay type: binding
Description: Compounds of interest were prepared in a dose-response titration in DMSO, and 80 nL were added via Labcyte Echo to each well of a 384-well plate (Perkin Elmer 6008280). […] The plate was incubated for 30 minutes at room temperature. Biotinylated KRPep-2d substrate (Amgen) was diluted to 20 nM in Assay Buffer and 2 μL was added to all wells and incubated for 1 h at room temperature. Detection Reagent (0.4 nM LANCE Eu-W1024 Anti-6xHis (Perkin Elmer AD0401), 5 nM streptavidin-d2 (Cisbio 610SADLA)) was prepared in Assay Buffer, then 4 μL was added to the plate and incubated for 1 h at room temperature. Plates were read using PerkinElmer EnVision (ex: 320 nm, em1: 665 nm, em2: 615 nm) and em1/em2 data was used to generate curve fits using a 4-parameter logistic model to calculate IC50 values.

[2] = molecular target: GDP-bound KRAS protein (aa 1-169), containing both G12D and C118A amino acid substitutions (Homo sapiens, UniProt P01116, C118A/G12D); assay: KRAS G12D Coupled Nucleotide Exchange Assay; assay type: biochemical; settings: 2 h compound pre-incubation
Sequence of GDP-bound KRAS protein (aa 1-169), containing both G12D and C118A amino acid substitutions (P01116 1-169 isoform P01116-2 G12D/C118A): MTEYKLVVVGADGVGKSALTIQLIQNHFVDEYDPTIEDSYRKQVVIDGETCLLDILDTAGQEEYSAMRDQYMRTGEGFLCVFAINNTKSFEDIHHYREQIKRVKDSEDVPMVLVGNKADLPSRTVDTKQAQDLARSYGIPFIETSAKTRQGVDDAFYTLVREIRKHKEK
Description: Following compound pre-incubation, purified SOS protein (aa 564-1049) and GTP (Roche 10106399001) were added to the assay wells and incubated for an additional 30 min. […] The assay plates were then read on a PerkinElmer EnVision Multilabel Reader, using AlphaScreen® technology, and data were analyzed using a 4-parameter logistic model to calculate IC50 values.

[3] = test system: Phosphorylation of ERK1/2 in A-427 cells; assay: Phospho-ERK1/2 MSD Assay (A-427 cells); assay type: cell-based; settings: 2 h treatment, read-out: p-ERK (A427 cells) IC50
Description: (§1) A-427 (ATCC® HTB-53™) cells were cultured in RPMI 1640 Medium (ThermoFisher Scientific 11875093) containing 10% fetal bovine serum (ThermoFisher Scientific 16000044) and 1× penicillin-streptomycin-glutamine (ThermoFisher Scientific 10378016). Sixteen hours prior to compound treatment, A-427 cells were seeded in 96-well cell culture plates at a density of 25,000 cells/well and incubated at 37° C., 5% CO2. A compound dose-response titration was diluted in growth media, added to appropriate wells of a cell culture plate, and then incubated at 37° C., 5% CO2 for 2 h. Following compound treatment, cells were washed with ice-cold Dulbecco's phosphate-buffered saline, no Ca^2+ or Mg^2+ (ThermoFisher Scientific 14190144), and then lysed in RIPA buffer (50 mM Tris-HCl pH 7.5, 1% Igepal, 0.5% sodium deoxycholate, 150 mM NaCl, and 0.5% sodium dodecyl sulfate) containing protease inhibitors (Roche 4693132001) and phosphatase inhibitors (Roche 4906837001). Phosphorylation of ERK1/2 in compound-treated lysates was assayed using Phospho-ERK1/2 Whole Cell Lysate kits (Meso Scale Discovery K151DWD) according to the manufacturer's protocol. Assay plates were read on a Meso Scale Discovery Sector Imager 6000, and data were analyzed using a 4-parameter logistic model to calculate IC50 values.

[4] = test system: Phosphorylation of ERK1/2 in AsPC-1 cells; assay: Phospho-ERK1/2 MSD Assay (AsPC-1 cells); assay type: cell-based; settings: 2 hours treatment, read-out: p-ERK (AsPC-1 cells) IC50
Description: as §1, with “AsPC-1” for “A-427”, “CRL-1682™)” for “HTB-53™)”, “hours.” for “h.”

Sequence of His-tagged KRAS G12D protein (P01116 1-188 isoform P01116-2 G12D): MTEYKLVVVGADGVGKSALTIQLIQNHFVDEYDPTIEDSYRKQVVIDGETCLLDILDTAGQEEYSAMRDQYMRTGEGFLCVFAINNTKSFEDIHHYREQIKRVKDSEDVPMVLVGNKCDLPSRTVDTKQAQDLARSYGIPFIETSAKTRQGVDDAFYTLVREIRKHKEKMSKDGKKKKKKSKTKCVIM

SMILES	IC50 [1] [nM]	Avg 2 h Coupled Exchange IC50 [2] [nM]	IC50 ([3]; Homo sapiens, A-427, 2 h) [nM]	IC50 ([4]; Homo sapiens, ASPC1, 2 h) [nM]	IC50 [3] [nM]	IC50 [4] [nM]
CCc1c(F)ccc2cc(O)cc(-c3c(F)cc4c(N5CC6CCC(C5)N6)nc(OCC56CCCN5C[C@H](F)C6)nc4c3F)c12 (atropisomer, axis not shown; (M)) [Example 232, (M)-4-(4-((1R,5S)-3,8-diazabicyclo[3.2.1]octan-3-yl)-6,8-difluoro-2-(((2R,7aS)-2-fluorotetrahydro-1H-pyrrolizin-7a(5H)-yl)methoxy)quinazolin-7-yl)-5-ethyl-6-fluoronaphthalen-2-ol]	1	2	3	8	–	–
Oc1cc(-c2c(F)cc3c(N4C[C@@H]5CC[C@H]4CN5)nc(OCC45CCCN4C[C@H](F)C5)nc3c2F)c2c(F)c(F)ccc2c1 (atropisomer, axis not shown; (M)) [Example 233, (M)-4-(4-((1S,4S)-2,5-Diazabicyclo[2.2.2]octan-2-yl)-6,8-difluoro-2-(((2R,7aS)-2-fluorotetrahydro-1H-pyrrolizin-7a(5H)-yl)methoxy)quinazolin-7-yl)-5,6-difluoronaphthalen-2-ol]	1	1	5	27	–	–
CCc1c(F)ccc2cc(O)cc(-c3c(F)cc4c(N5C6CCC5C(=O)NC6)nc(OC[C@@]56CCCN5C[C@H](F)C6)nc4c3F)c12 (single isomer, unassigned) [Example 175]	6	4	448	1560	–	–
CCc1c(F)ccc2cc(O)cc(-c3c(F)cc4c(N5C6CCC5C(=O)NC6)nc(OC[C@@]56CCCN5C[C@H](F)C6)nc4c3F)c12 (single isomer, unassigned) [Example 176]	11	7	–	–	545	2650
Cc1c(-c2cc(O)cc3ccccc23)ccc2c(N3CC4CCC(C3)N4)nc(OCC34CCCN3C[C@H](F)C4)nc12 (stereo in doubt) [Example 32, 4-(4-((1R,5S)-3,8-diazabicyclo[3.2. 1]octan-3-yl)-2-(((2R,7aS)-2-fluorotetrahydro-1H-pyrrolizin-7a(5H)-yl)methoxy)-8-methylquinazolin-7-yl)naphthalen-2-ol]	5	2	341	712	–	–
Oc1cc(Cl)c(C2CC2)c(-c2c(F)cc3c(N4CC5CCC4CN5)nc(OC[C@@]45CCCN4C[C@H](F)C5)nc3c2F)c1 (stereo in doubt) [Example 143, 3-(4-((1R,4R)-2,5-diazabicyclo[2.2.2]octan-2-yl)-6,8-difluoro-2-(((2R,7aS)-2-fluorotetrahydro-1H-pyrrolizin-7a(5H)-yl)methoxy)quinazolin-7-yl)-5-chloro-4-cyclopropylphenol]	3	3	13	46	–	–
Oc1cc(-c2ccc3c(N4[C@@H]5CC[C@H]4CNC5)nc(OC[C@@]45CCCN4C[C@H](F)C5)nc3c2F)c2ccccc2c1 [Example 1, 4-(4-((1R,5S)-3,8-Diazabicyclo[3.2.1]octan-8-yl)-8-fluoro-2-(((2R,7aS)-2-fluorotetrahydro-1H-pyrrolizin-7a(5H)-yl)methoxy)quinazolin-7-yl)naphthalen-2-ol]	4	3	171	420	–	–
Oc1cc(-c2ccc3c(N4[C@@H]5CNC[C@H]4COC5)nc(OC[C@@]45CCCN4C[C@H](F)C5)nc3c2F)c2ccccc2c1 [Example 2, 4-(4-((1R,5S)-3-oxa-7,9-diazabicyclo[3.3. 1]nonan-9-yl)-8-fluoro-2-(((2R,7aS)-2-fluorotetrahydro-1H-pyrrolizin-7a(5H)-yl)methoxy)quinazolin-7-yl)naphthalen-2-ol]	7	4	222	721	–	–
Oc1cc(-c2ccc3c(N4[C@@H]5CC[C@H]4CNC5)nc(OC[C@]45CCCN4C[C@H](F)C5)nc3c2F)c2ccccc2c1 [Example 3, 4-(4-((1R,5S)-3,8-diazabicyclo[3.2. 1]octan-8-yl)-8-fluoro-2-(((2R,7aR)-2-fluorotetrahydro-1H-pyrrolizin-7a(5H)-yl)methoxy)quinazolin-7-yl)naphthalen-2-ol]	10	5	650	812	–	–
Oc1cc(-c2ccc3c(N4C[C@H]5C[C@@H](C4)N5)nc(OC[C@@]45CCCN4C[C@H](F)C5)nc3c2F)c2ccccc2c1 [Example 4, 4-(4-((1R,5S)-3,6-diazabicyclo[3.1. 1]heptan-3-yl)-8-fluoro-2-(((2R,7aS)-2-fluorotetrahydro-1H-pyrrolizin-7a(5H)-yl)methoxy)quinazolin-7-yl)naphthalen-2-ol]	5	7	294	1230	–	–
Cc1c(-c2cc(O)cc3ccccc23)ccc2c(N3C[C@H]4C[C@@H](C3)N4)nc(OC[C@@]34CCCN3C[C@H](F)C4)nc12 [Example 5, 4-(4-((1R,5S)-3,6-diazabicyclo[3.1. 1]heptan-3-yl)-2-(((2R,7aS)-2-fluorotetrahydro-1H-pyrrolizin-7a(5H)-yl)methoxy)-8-methylquinazolin-7-yl)naphthalen-2-ol]	43	19	2150	2970	–	–
Oc1cc(-c2c(F)cc3c(N4[C@@H]5CC[C@H]4CNC5)nc(OC[C@@]45CCCN4C[C@H](F)C5)nc3c2F)c2ccccc2c1 [Example 12, 4-(4-((1R,5S)-3,8-diazabicyclo[3.2. 1]octan-8-yl)-6,8-difluoro-2-(((2R,7aS)-2-fluorotetrahydro-1H-pyrrolizin-7a(5H)-yl)methoxy)quinazolin-7-yl)naphthalen-2-ol]	–	–	90	293	–	–
Oc1cc(-c2c(F)cc3c(N4C[C@H]5CC[C@@H](C4)N5)nc(OC[C@]45CCCN4C[C@H](F)C5)nc3c2F)c2ccccc2c1 [Example 43, 4-(4-((1R,5S)-3,8-diazabicyclo[3.2. 1]octan-3-yl)-6,8-difluoro-2-(((2R,7aR)-2-fluorotetrahydro-1H-pyrrolizin-7a(5H)-yl)methoxy)quinazolin-7-yl)naphthalen-2-ol]	–	–	16	90	–	–
Oc1cc(-c2c(F)cc3c(N4C[C@H]5CC[C@@H](C4)N5)nc(OC[C@@]45CCCN4C[C@H](F)C5)nc3c2F)c2ccccc2c1 [Example 47, 4-(4-((1R,5S)-3,8-diazabicyclo[3.2. 1]octan-3-yl)-6,8-difluoro-2-(((2R,7aS)-2-fluorotetrahydro-1H-pyrrolizin-7a(5H)-yl)methoxy)quinazolin-7-yl)naphthalen-2-ol]	–	–	11	–	–	–
